Assay results from US20190201419A1, “COMPOUND AND METHOD FOR THE TREATMENT AND DIAGNOSIS OF NEURODEGENERATIVE CONDITIONS” (Swansea University, priority 2013, published 2019).

What was measured:
Lxrα = target: T1, Lxrα (Homo sapiens, UniProt Q13133); experiment: Lxrα luciferase reporter assay in SN4741 neural cells; format: cell-based, mouse; details: for Lxrα activation, luciferase activity (fold activation): 10 μM, 24 h
T1 construct: expressed in transfected cells; host or cells: SN4741 mouse neuronal cell line
T1 sequence (Q13133 1-447): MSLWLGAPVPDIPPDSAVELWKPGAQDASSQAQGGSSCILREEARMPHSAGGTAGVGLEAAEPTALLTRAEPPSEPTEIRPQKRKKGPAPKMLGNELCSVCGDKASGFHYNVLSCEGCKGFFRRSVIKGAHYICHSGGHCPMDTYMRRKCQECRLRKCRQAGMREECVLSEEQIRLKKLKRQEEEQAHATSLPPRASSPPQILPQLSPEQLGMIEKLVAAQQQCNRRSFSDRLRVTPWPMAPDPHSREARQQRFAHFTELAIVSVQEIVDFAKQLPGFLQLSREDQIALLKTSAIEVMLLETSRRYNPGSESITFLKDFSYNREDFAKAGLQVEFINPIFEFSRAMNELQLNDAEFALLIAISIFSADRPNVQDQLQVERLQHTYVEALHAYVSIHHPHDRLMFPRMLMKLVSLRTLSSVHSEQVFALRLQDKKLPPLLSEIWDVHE
Text: (§1) Luciferase Reporter Assay.

abca1 = abca1 expression in zebrafish embryos; format: in vivo; details: 10 μM
Experimental: (§2) Quantitative PCR, Total RNA was extracted from SN4741. cells and zebrafish treated with the compounds of interest using the RNeasy Mini Kit (Qiagen), 1 μg was treated with RQ1 RNase-free DNase (Promega) and reverse transcribed using SuperScript II Reverse Transcriptase (invitrogen) and random primers (invitrogen) (RT+reaction). Parallel reactions without reverse transcriptase enzyme were done as a control (RT−reaction), and Sybergreen real-time quantitative PCR assays were performed. Expression levels were obtained by normalization with the Value of the housekeeping gene encoding actin obtained for every sample in parallel assays.
Zebrafish Strain and Maintenance Zebrafish were raised on a 14/10 h day/night cycle and were kept at 28.5 ° C. Islet-1:GFP transgenic embryos were obtained via natural spawning and staged in hours or days post fertilization (hpf and dpt) according to Kimmel et al). Embryos older than 24 hpf were treated with 0.03% phenylthiourea (PTU) to inhibit pigmentation. […] Immunocytochemistry was performed using an anti-GFP antibody and fluorescence was viewed and photographed using a Zeiss Axioplan compound microscope and a Zeiss Axiocam digital camera.

active caspase 3+ cells = experiment: Active caspase 3+ cells in mouse E11.5 brain primary cultures; format: cell-based; details: for Number of active caspase-3+ cells: wt cultures, 3β,7α-diHCA, 3βH,7O-CA, 25-HC at 10 μM, toxic acids at low concentrations
Experimental: (§3) Primary Brain Cultures. Brains from E11.5 mice were manually dissected, plated on poly-D-lysine (150,000 cells/cm^2) and grown in serum-free N2 media consisting of 1:1 mixture of F12 and DMEM with 10 ng/mL insulin, 100 μg/mL apo-transferrin, 100 μM putrescine, 20 nM progesterone, 30 nM selenium, 6 mg/mL glucose, and 1 mg/mL BSA. Cells were treated for 3 days in vitro (DIV) with the compounds of interest, fixed with 4% PFA and processed for staining using appropriate antibodies.
(§4) Antibodies and Detection Procedures. Cells were fixed in 4% PFA, washed in PBS and blocked in 5% normal goat serum/PBS for 1 h at room temperature. Primary antibodies were diluted in PBS (pH 7.4), 0.3% Triton X-100, 1% BSA and incubations were carried out overnight at +4° C. or at room temperature for 2 h. The antibodies used were anti-:BrdU (1:400; Abeam), Islet-1 (1:100: Developmental Studies Hybridoma Bank), cleaved caspase-3 (Aspt 75) (1:100; Cell Signaling Technology), tyrosine hydroxylase (TH; 1:1000; Pel-Freeze) GABA (1:1,000; Sigma), Bm3a (1:250; Millipore), Nkx6.1 (1:200; Novus Biologicals), choline acetyltransferase (ChAT; 1:500; Millipore) and appropriate secondary antibodies (Jackson ImmunoResearch or Alexa). Cells positive for the corresponding marker were counted directly at the microscope at a magnification of 20×. Cells were counted in every well, in eight consecutive fields (going from one side of the well to the other, passing through the center), in three different wells per experiment and in three different experiments per condition. Random pictures of the wells were taken for every condition to document the result, and representative pictures were subsequently selected to represent the quantitative data. Photos were acquired with a Zeiss Axioplan microscope and a Hamamatsu camera C4742-95 using the Openlab software.

[1] = system: Islet1+ oculomotor neurons; experiment: Islet1+ cells in mouse E11.5 brain primary cultures; format: cell-based; details: for Effect on Islet1+ cells in Lxrα−/−β−/− cultures: cultures from Lxrα−/−β−/− mice; for Number of Islet1+ cells / Concentration giving significant difference from vehicle in Islet1+ cells: wild type cultures; for Concentration giving significant difference from vehicle in Islet1+ cells: p<0.05; for Effect on Islet1+ cells with Lxr antagonist GGPP: wt cultures, 10 μM GGPP
Experimental: as §3, §4

Islet-1 = Islet-1 expression in Tg[Isl1:GFP] zebrafish embryos; format: in vivo; details: 10 μM
Experimental: as §2
(§5) Zebrafish Strain and Maintenance Zebrafish were raised on a 14/10 h day/night cycle and were kept at 28.5 ° C. Islet-1:GFP transgenic embryos were obtained via natural spawning and staged in hours or days post fertilization (hpf and dpt) according to Kimmel et al). Embryos older than 24 hpf were treated with 0.03% phenylthiourea (PTU) to inhibit pigmentation. MO injections were performed using splice site specific zebrafish lxi MO MO injected embryos were immediately dechorionated and transferred to a 96 well plate and exposed to dimethyl sulfoxide (DMSO) treated or ligand treated medium. Compound Exposure. Islet-1:GFP embryos were collected by natural mating and immediately (at 1 cell stage) dechorionated and transferred to a 96 well plate. Each of the compounds tested were obtained as 10 mM stock and diluted in embryo medium to a final concentration of 10 μM, and 200 μL was added to each well. DMSO or propan-2-ol treated embryo medium was taken as control. Ligand solutions were replaced every 12 h with fresh ligand solution prepared in PTU treated embryo medium. Embryos were collected at 48 hpf, fixed for 4 h at room temperature with 4% paraformaldehyde and then washed and kept in PBST. Immunocytochemistry was performed using an anti-GFP antibody and fluorescence was viewed and photographed using a Zeiss Axioplan compound microscope and a Zeiss Axiocam digital camera.

Lxrβ = target: T2, Lxrβ (Homo sapiens, UniProt P55055); experiment: Lxrβ luciferase reporter assay in SN4741 neural cells; format: cell-based, mouse; details: for Lxrβ activation, luciferase activity (fold activation): SN4741 cells, 10 μM, 24 h
T2 construct: expressed in transfected cells; host or cells: SN4741 mouse neuronal cell line
T2 sequence (P55055 1-460): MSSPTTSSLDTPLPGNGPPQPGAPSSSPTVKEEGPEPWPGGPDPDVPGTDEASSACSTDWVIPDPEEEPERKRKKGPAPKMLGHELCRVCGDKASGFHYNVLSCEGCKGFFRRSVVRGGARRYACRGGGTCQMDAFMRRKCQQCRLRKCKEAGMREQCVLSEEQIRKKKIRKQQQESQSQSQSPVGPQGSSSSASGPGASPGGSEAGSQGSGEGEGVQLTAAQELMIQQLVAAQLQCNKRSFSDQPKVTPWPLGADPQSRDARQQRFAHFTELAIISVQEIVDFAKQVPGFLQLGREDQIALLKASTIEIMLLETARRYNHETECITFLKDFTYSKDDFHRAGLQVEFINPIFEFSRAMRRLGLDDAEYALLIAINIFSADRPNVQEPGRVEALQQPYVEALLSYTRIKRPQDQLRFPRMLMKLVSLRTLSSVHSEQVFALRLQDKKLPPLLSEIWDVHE
Text: as §1

[2] = system: TH+ dopamine neurons, GABAergic or red nucleus neurons; Nkx6.1+ cells; experiment: Other cell types in mouse E11.5 brain primary cultures; format: cell-based; details: data not shown
Experimental: as §3, §4

[3] = LC-ESI-MSn of cholestenoic acids in mouse brain; details: 23 month old male Cyp7b1−/− mice
Text: Animals. Lxra,−/−β−/− mouse cell cultures were from the colony at the Department of Biosciences and Nutrition at Novum, Karolinska Institutet. Male and female wild-type and Lxrα−/−β−/− mice were generated as previously described (Alberti et al. J. Clin. Invest 2001:107(5), 565-73). Mice were back crossed onto a C57BL/6 background for 10 generations. Male Cyp7b1−/− mouse brain and plasma were from animals generated at the University of Edinburgh. Male mice homozygous for targeted disruption of the Cyp7b1 gene congenic on the C57BL/6 genetic background (>15 generations backcrossed to C57BL/6) and wild-type littermate controls were generated from Cyp7b1−/+ crosses. Male cyp27a1−/− mouse tissue and plasma was purchased from The Jackson Laboratory (ME, USA) strain B6.129-Cyp27a1^tm1Elt/J. The Cyp27a1−/− colony was backcrossed to C57BL/6J inbred mice for approximately 12 generations by the donating investigator prior to sending to The Jackson Laboratory Repository. Upon arrival, mice were bred to C57BL/6J inbred mice for at least one generation to establish the colony. Wild type animals from the colony were used as controls.
Extraction of Sterols. […]
Charge Tagging of Sterols. The sterols were charge-tagged with the GP-hydrazine to enhance their response when analysed by LC-ESI-MS and tandem mass spectrometry (MS^n).

Lxrβ-LBD = target: T3, Lxrβ-LBD (Homo sapiens, UniProt P55055); experiment: Lanthascreen TR-FRET Lxrβ coactivator assay; format: binding
T3 construct: the Lxrβ-LBD tagged with glutathione-S-transferase (GST); purchased Invitrogen
T3 sequence (P55055 222-460 limits assumed): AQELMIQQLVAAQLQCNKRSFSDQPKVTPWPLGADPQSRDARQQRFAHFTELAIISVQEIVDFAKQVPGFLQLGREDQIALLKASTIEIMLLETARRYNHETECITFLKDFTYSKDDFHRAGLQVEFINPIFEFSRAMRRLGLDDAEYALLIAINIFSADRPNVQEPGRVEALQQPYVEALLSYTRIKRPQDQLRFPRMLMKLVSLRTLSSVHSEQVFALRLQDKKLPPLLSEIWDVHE
Text: Lxrβ Ligand Binding Assay. For Lxrβ ligand binding activity measurement, the applicants used the Lanthascreen™ TR-FRET Lxrβ Coactivator Assay (Invitrogen). The assay uses a terbium (Tb)-labeled anti-GST antibody, a fluorescein-labeled coactivator peptide and the Lxrβ-LBD tagged with glutathione-S-transferase (GST). Binding of the agonist/ligand to Lxrβ-LBD causes a conformational change that result in an increase in the affinity of the Lxrβ for the coactivator peptide. The close proximity of the fluorescently labeled coactivator peptide to the Tb-labeled antibody causes an increase in the TR-FRET signal intensity. The TR-FRET ratio of 520/495 was calculated using a Victor multi label reader with an excitation wavelength of 340 nm and emission wavelengths of 520 nm and 495 nm, The activational capacity of potential ligands was tested in a […] polypropylene plate, following the manufacturer's protocol.

[4] = system: Abca1, Abcg1 and Srebf1 transcript levels; experiment: Quantitative PCR of Lxr target genes in SN4741 cells; format: cell-based, mouse; details: 3 h
Experimental: as §2

zebrafish embryos = experiment: Survival of transgenic zebrafish embryos on compound exposure; format: in vivo
Experimental: as §5

SMILES | Lxrα activation, luciferase activity (fold activation) (Lxrα) | Number of active caspase-3+ cells (active caspase 3+ cells) | Effect on Islet1+ cells in Lxrα−/−β−/− cultures [1] | Number of Islet1+ cells [1] | Concentration giving significant difference from vehicle in Islet1+ cells [1] | Effect on Islet1+ cells with Lxr antagonist GGPP [1] | Islet-GFP expression (Islet-1; embryos 48 hpf) | Lxrβ activation, luciferase activity (fold activation) (Lxrβ) | also measured
CC(CCC[C@@H](C)[C@H]1CC[C@H]2[C@@H]3C(=O)C=C4C[C@@H](O)CC[C@]4(C)[C@H]3CC[C@]12C)C(=O)O (stereo partly drawn) [3βH,7O-CA, 3β-hydroxy-7-oxocholest-5-en-26-oic acid] | have the ability to activate both Lxrs | did not affect the number of active caspase-3+ cells | eliminated | increased the number of Islet1+ oculomotor cells in the cultures | ≥ 10 µM | blocked by the Lxr antagonist GGPP | increased Islet-GFP expression | have the ability to activate both Lxrs | abca1 expression (abca1): enhanced expression of abca1; Islet-1 mRNA and protein level (qPCR, western blot) (Islet-1): accompanied by an increase in the level of Islet-1 mRNA and protein; Number of Islet1+ cells in cranial nerves (III, IV, V, VII, X) (Islet-1; embryos 48 hpf): had no significant effect on the number of Islet1+cells; Islet-GFP levels after lxr morpholino injection (Islet-1; lxr MO vs control scrambled MO): lxr MO injections abolished the in vivo increase in Islet-GFP levels; Number of other midbrain neurons (TH+ dopamine, GABAergic, red nucleus) [2]: did not affect the number of other midbrain neurons
C[C@H](CCCC(C)(C)O)[C@H]1CC[C@H]2[C@@H]3CC=C4C[C@@H](O)CC[C@]4(C)[C@H]3CC[C@]12C [25-HC, cholest-5-ene-3β,25-diol] | activate Lxr | reduced the number of active caspase-3+ cells | blocked in cultures from Lxrα−/−β−/− animals | increase the number of Islet1+ oculomotor cells | – | inhibited by the Lxr antagonist GGPP | induced a modest increase in the levels of islet-1 | activate Lxr | Lxr luciferase activity with addition of the Lxr antagonist GGPP (Lxrα; 10 μM metabolite + 10 μM GGPP): similarly blocked; Level in Cyp7b1−/− mouse brain [3]: > 2 ng/mg
CC(CCC[C@@H](C)[C@H]1CC[C@H]2[C@@H]3[C@@H](O)C=C4C[C@@H](O)CC[C@]4(C)[C@H]3CC[C@]12C)C(=O)O (stereo partly drawn) [3β,7β-diHCA, 3β,7β-dihydroxycholest-5-en-26-oic acid] | have the ability to activate both Lxrs | increased the number of active caspase-3+ cells | – | caused the loss of Islet1+ cells in the cultures | ≥ 2 µM | – | – | have the ability to activate both Lxrs | Competition with the effect of 3β,7α-diHCA in TR-FRET (Lxrβ-LBD; 3β,7α-diHCA at 10 μM plus increasing concentrations of competitor): the effect of 3β,7α-diHCA was reduced to that of the latter acids; Competitor concentration giving significant difference from 10 μM 3β,7α-diHCA alone in TR-FRET (Lxrβ-LBD; p<0.05 vs 10 μM 3β,7α-diHCA): ≥ 2; Surviving cells in cultures (active caspase 3+ cells; 10 μM): no surviving cells were detected; Concentration at which toxicity is initiated (active caspase 3+ cells; mouse, primary brain cultures from E11.5 mouse embryos, 3 days): 1000 nM; Concentration giving significant difference from vehicle in active caspase 3+ cells (active caspase 3+ cells; p<0.05): ≥ 2 µM; Lxr activational capacity in combination with 22R-HC (Lxrβ; 10 μM acid + 10 μM 22R-HC): No additive effect was observed; Abca1, Abcg1 and Srebf1 transcript levels [4]: induced transcription, but to a lesser extent; Toxic effect on survival of the fish (zebrafish embryos): had a deleterious toxic effect which impaired the survival of the fish
